Laboratory results reported in PMC3070799 (Neuropharmacology, 2011).
Read-outs that look alike come from different tables or passages of the source.

Legend:
human 5-HT3A receptors = biological target: T1, human 5-HT3A receptors (Homo sapiens, UniProt P46098); test: Two-electrode voltage clamp of 5-HT-induced currents in Xenopus oocytes, incl. co-application; assay type: cell-based
T1 construct: expressed in transfected cells; host or cells: Xenopus laevis oocytes (cRNA from pGEMHE)
T1 sequence (P46098 24-478): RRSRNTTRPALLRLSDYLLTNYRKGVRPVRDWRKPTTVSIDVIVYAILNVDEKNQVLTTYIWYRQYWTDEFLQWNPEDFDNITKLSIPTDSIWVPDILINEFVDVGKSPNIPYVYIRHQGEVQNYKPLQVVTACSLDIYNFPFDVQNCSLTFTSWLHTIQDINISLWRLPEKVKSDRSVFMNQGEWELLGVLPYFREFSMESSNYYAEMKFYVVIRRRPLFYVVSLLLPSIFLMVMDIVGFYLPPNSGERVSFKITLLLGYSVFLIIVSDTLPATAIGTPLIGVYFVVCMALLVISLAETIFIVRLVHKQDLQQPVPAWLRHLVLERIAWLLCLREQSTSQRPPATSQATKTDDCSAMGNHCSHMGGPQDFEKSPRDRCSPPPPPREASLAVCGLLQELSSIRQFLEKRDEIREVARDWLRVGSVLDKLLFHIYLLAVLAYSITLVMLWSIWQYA
Method: (§1) Stage V and VI oocytes were injected with 50 nl of ∼300 ng μl^−1 cRNA, and currents were recorded 1–4 days post-injection. A ratio of 1:3 (A:B) was used for the expression of heteromeric 5-HT3 receptors.
(§2) Xenopus laevis oocyte positive females were purchased from NASCO (Fort Atkinson, Wisconsin, USA) and maintained according to standard methods.
(§3) Currents were filtered at a frequency of 1 kHz. Micro-electrodes were fabricated from borosilicate glass (GC120TF-10, Harvard Apparatus, Edenbridge, Kent, UK) using a two stage horizontal pull (P-87, Sutter Instrument Company, California, USA) and filled with 3 M KCl. […] Oocytes were perfused with saline at a rate of 15 ml min^−1. Drug application was via a simple gravity fed system calibrated to run at the same rate. Extracellular saline contained (mM), 96 NaCl, 2 KCl, 1 MgCl2 and 5 mM HEPES; adjusted to pH 7.4 with NaOH.
(§4) Analysis and curve fitting was performed using Prism V3.02 (GraphPad Software, San Diego, California, USA, www.graphpad.com). Concentration-response data for each oocyte was normalised to the maximum current for that oocyte. For inhibition curves, antagonists were routinely co-applied in the presence of agonist. For PXN, oocytes were also pre-treated with the compound for 20 s. A 2 min wash was used between drug applications. The mean and S.E.M. for a series of oocytes was plotted against agonist or antagonist concentration and iteratively fitted (GraphPad Prism v3.02) to the following Hill equation:(1) IA=Imin+Imax−Imin/1+10^nH(logA50−logA) where A is the concentration of ligand present; IA is the current in the presence of ligand concentration A; Imin is the current when A = 0; Imax is the current when A = ∞ , A50 is the concentration of A which evokes a current equal to (Imax + Imin)/2; and nH is the Hill coefficient. Results are presented as mean ± S.E.M.. Statistical analysis was performed using ANOVA in conjunction with a Dunnett’s post-hoc test.
97) • Scenario 1: Where compounds share a binding site it was assumed that the extent of binding would be determined by a competitive interaction between the compounds such that the proportion of binding sites occupied (Pocc) in the presence of two competing compounds is given by the following expression: (2) Pocc=AKA+BKB/1+AKA+BKB where A and B are the concentrations of two ligands and KA and KB are their affinity constants respectively.
In each individual experiment, for each combination of inhibitors, data values were obtained for IA, IB and IAB. From IA and IB predicted values of IAB1 and IAB2 were also derived. A two-way ANOVA was performed on values of IAB, IAB1 and IAB2 in which the distinction between IAB, IAB1 and IAB2 was treated as a fixed factor and the variation in levels of inhibition between experiments was treated as a random factor. Where the ANOVA indicated a significant difference (P < 0.05) between IAB, IAB1 and IAB2 a post-hoc analysis was carried out using the Waller–Duncan method to identify homogenous subsets with a significance level of 0.05 and a Type I /Type II error ratio if 100.
Our models were based on the following assumptions: 1. that the channel blocking compounds only effect the response that is seen when the channel is open. […] In the case of condition 5 it is possible that the binding of one compound may prevent access of another to its own site. However, in practice this will not influence the analysis since the functional consequence of the binding of both compounds compared to one will be the same, namely complete channel blockade.

glycine α1 receptors = biological target: glycine α1 receptors; parameters: method as in Yang et al., 2007; conditions: ref Yang et al., 2007; cited from earlier work
human 5-HT3AB receptors = biological target: T2, human 5-HT3AB receptors (Homo sapiens, UniProt O95264+P46098); test: Two-electrode voltage clamp of 5-HT-induced currents in Xenopus oocytes; assay type: cell-based
T2 construct: expressed in transfected cells; host or cells: Xenopus laevis oocytes (cRNA from pGEMHE)
T2 sequence (P46098 24-478): T1 sequence (P46098 24-478)
T2 sequence (O95264 22-441): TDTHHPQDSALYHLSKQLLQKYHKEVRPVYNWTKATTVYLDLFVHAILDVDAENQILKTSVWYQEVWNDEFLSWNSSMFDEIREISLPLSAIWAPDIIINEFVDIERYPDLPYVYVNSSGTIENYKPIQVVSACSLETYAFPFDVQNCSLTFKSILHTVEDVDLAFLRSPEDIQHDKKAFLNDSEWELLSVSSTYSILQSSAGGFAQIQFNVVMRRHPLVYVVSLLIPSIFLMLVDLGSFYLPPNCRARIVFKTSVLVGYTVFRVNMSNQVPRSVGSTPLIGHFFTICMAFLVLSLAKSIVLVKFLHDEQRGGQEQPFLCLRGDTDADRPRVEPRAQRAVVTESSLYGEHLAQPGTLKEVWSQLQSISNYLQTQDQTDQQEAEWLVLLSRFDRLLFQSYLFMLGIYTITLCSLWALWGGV
Method: as §1, §2, §3, §4

glycine α1β receptors = biological target: glycine α1β receptors; parameters: method as in Yang et al., 2007; conditions: ref Yang et al., 2007; cited from earlier work
[1] = abstract, 5-HT-induced responses, Xenopus oocytes, read-out: IC50
[2] = read-out: inhibition at the highest concentration used

Question: With `CC(C)(O)[C@@H]1[C@H]2OC(=O)[C@@H]1[C@]1(O)C[C@H]3O[C@]34C(=O)O[C@H]2[C@]14C` [PTN, picrotin] as the compound, how does the IC50 (human 5-HT3A receptors) read?
Answer: Its IC50 is 470 µM.

Question: And the “ratio of current amplitudes at +40 mV relative to −40 mV (voltage-dependence)” value (human 5-HT3A receptors; compared with absence of antagonist, Fig. 2E)?
Answer: Its value is “unaltered”.

Question: What about the Hill slope (human 5-HT3A receptors; concentration-inhibition curve, 1.7 μM 5-HT) of the same compound?
Answer: Its Hill slope is 1.33 ± 0.15.

Question: And the IC50 (glycine α1 receptors)?
Answer: The IC50 was ~5 µM.

Question: What about the IC50 (human 5-HT3AB receptors; IC50, inhibition of 5-HT EC50 response (28 μM 5-HT), oocytes) of the same compound?
Answer: Its IC50 is 2900 µM.

Question: What about the Hill slope (human 5-HT3AB receptors; concentration-inhibition curve, 28 μM 5-HT) of the same compound?
Answer: Its Hill slope is 0.99 ± 0.07.

Question: And the IC50 (human 5-HT3AB receptors; pIC50, inhibition of 5-HT EC50 response (28 μM 5-HT), oocytes)?
Answer: Its IC50 is 2950 µM.

Question: And the IC50 (glycine α1β receptors)?
Answer: The IC50 was ~30 µM.

Question: With `C[C@@H]1C(=O)O[C@H]2C[C@@]34[C@H]5C[C@@H](C(C)(C)C)[C@]36[C@@H](OC(=O)[C@@H]6O)O[C@@]4(C(=O)O5)[C@]21O` [GA, ginkgolide A] as the compound, how does the “inhibition (in words)” value (human 5-HT3A receptors; 1 mM, seen in the 5-HT3A receptor only) read?
Answer: Its value is “minimal inhibition”.

Question: And the IC50 (human 5-HT3A receptors; [1])?
Answer: The IC50 was > 1000 µM.

Question: And the IC50 (human 5-HT3A receptors; inhibition of 5-HT EC50 response (1.7 μM 5-HT), oocytes, read-out: IC50)?
Answer: The IC50 was > 1000 µM.

Question: What about the inhibition at 1000 µM (human 5-HT3A receptors; [2]) of the same compound?
Answer: The inhibition at 1000 µM was ≤ 50%.

Question: And the IC50 (human 5-HT3AB receptors; [1])?
Answer: The IC50 was > 1000 µM.

Question: And the IC50 (human 5-HT3AB receptors; inhibition of 5-HT EC50 response (28 μM 5-HT), oocytes, read-out: IC50)?
Answer: The IC50 was > 1000 µM.

Question: What about the inhibition at 1000 µM (human 5-HT3AB receptors; [2]) of the same compound?
Answer: The inhibition at 1000 µM was ≤ 50%.
